Reference: DBAASP
≈ marks a conversion by molar mass, not a printed value. One block for each compound: values may come before it.

Columns and labels:
Assay in all cases: ≥ marks a high value that may be exact or a test limit, other limits are often not marked, values filed in µg/mL are converted to µM
[1] = system: Listeria monocytogenes KCTC 3710
[2] = system: Bacillus subtilis KCTC 1998
[3] = system: Staphylococcus aureus CCARM 3089
[4] = system: Staphylococcus aureus CCARM 3114
[5] = system: Proteus vulgaris KCTC 2433
[6] = system: Escherichia coli CCARM 1238
[7] = system: Salmonella typhimurium KCTC 1926
[8] = system: Pseudomonas aeruginosa 3547
[9] = system: Escherichia coli CCARM 1229
[10] = system: Pseudomonas aeruginosa 4007
[11] = system: Bacillus subtilis KCTC 1918
[12] = system: Aspergillus fumigatus KCTC 6145
[13] = system: Pseudomonas aeruginosa ATCC 15692
[14] = system: Listeria monocytogenes ATCC 19115
[15] = system: Staphylococcus aureus PBEL
[16] = system: Aspergillus flavus KCTC 6905
[17] = system: Staphylococcus epidermidis KCTC 3096
[18] = system: Staphylococcus epidermidis ATCC 12228
[19] = system: Candida albicans KCTC 7270
[20] = system: Aspergillus parasiticus KCTC 6598
[21] = system: Salmonella typhimurium CCARM 8009
[22] = system: Aspergillus awamori KCTC 6915
[23] = system: Pseudomonas aeruginosa KCTC 1637
[24] = system: Trichosporon beigelii KCTC 7707
[25] = system: Salmonella typhimurium CCARM 8013
[26] = system: Psychrobacter faecalis X29
Nocardia asteroides = system: Nocardia asteroides
[27] = system: Enterococcus faecalis 981
[28] = system: Enterococcus faecium 091299
Candida glabrata 090902 = system: Candida glabrata 090902
[29] = system: Staphylococcus aureus ATCC 25923
[30] = system: Enterobacter cloacae CGMCC 1.57
Micrococcus luteus = system: Micrococcus luteus
Enterobacter cloacae = system: Enterobacter cloacae
Vibrio alginolyticus = system: Vibrio alginolyticus
Fusarium oxysporum = system: Fusarium oxysporum
Klebsiella pneumoniae = system: Klebsiella pneumoniae
Aerococcus viridans = system: Aerococcus viridans
Salmonella typhimurium = system: Salmonella typhimurium
Vibrio harveyi = system: Vibrio harveyi
Vibrio anguillarum = system: Vibrio anguillarum
Bacillus megaterium = system: Bacillus megaterium
Penicillium crustosum = system: Penicillium crustosum
Staphylococcus aureus = system: Staphylococcus aureus
[31] = system: Pectobacterium carotovorum
Botrytis cinerea = system: Botrytis cinerea
Vibrio penaeicida = system: Vibrio penaeicida
Escherichia coli 363 = system: Escherichia coli 363
[32] = system: Staphylococcus epidermidis
[33] = system: Staphylococcus aureus A170
[34] = system: Candida albicans ATCC 37092
[35] = system: Staphylococcus aureus ATCC 29213
[36] = system: Escherichia coli ATCC 25922

SMILES: CC[C@H](C)[C@H](NC(=O)[C@H](CCCCN)NC(=O)[C@H](CCCCN)NC(=O)[C@H](C)NC(=O)[C@H](CC(C)C)NC(=O)[C@H](CCCCN)NC(=O)[C@H](CCCCN)NC(=O)[C@H](CC(C)C)NC(=O)[C@H](CCCN=C(N)N)NC(=O)[C@H](CCCCN)NC(=O)[C@H](C)N)C(=O)N[C@@H](Cc1c[nH]c2ccccc12)C(=O)N[C@@H](CCCCN)C(=O)N[C@@H](Cc1c[nH]c2ccccc12)C(=O)N[C@@H](CCCCN)C(N)=O [AKRLKKLAKKIWKWK]
MIC [1]: 2 µM (≈ 3.85 µg/mL)
MIC [2]: 2 µM (≈ 3.85 µg/mL)
MIC [3]: 2 µM (≈ 3.85 µg/mL)
MIC [4]: 4 µM (≈ 7.7 µg/mL)
MIC [5]: 2.83 µM (≈ 5.44 µg/mL)
MIC [6]: 2 µM (≈ 3.85 µg/mL)
MIC [7]: 1.41 µM (≈ 2.72 µg/mL)
MIC [8]: 2.83 µM (≈ 5.44 µg/mL)
MIC [9]: 1.41 µM (≈ 2.72 µg/mL)
MIC [10]: 1 µM (≈ 1.92 µg/mL)
MIC [11]: 2 µM (≈ 3.85 µg/mL)
MIC [12]: 4 µM (≈ 7.7 µg/mL)
MIC [13]: 2 µM (≈ 3.85 µg/mL)
MIC [14]: 2 µM (≈ 3.85 µg/mL)
MIC [15]: 1 µM (≈ 1.92 µg/mL)
MIC [16]: 8 µM (≈ 15.4 µg/mL)
MIC [17]: 2.83 µM (≈ 5.44 µg/mL)
MIC [18]: 2.83 µM (≈ 5.44 µg/mL)
MIC [19]: 8 µM (≈ 15.4 µg/mL)
MIC [20]: 8 µM (≈ 15.4 µg/mL)
MIC [21]: 2 µM (≈ 3.85 µg/mL)
MIC [22]: 8 µM (≈ 15.4 µg/mL)
MIC [23]: 2 µM (≈ 3.85 µg/mL)
MIC [24]: 16 µM (≈ 30.8 µg/mL)
MIC [25]: 1 µM (≈ 1.92 µg/mL)

SMILES: CC[C@H](C)[C@H](NC(=O)[C@H](C)NC(=O)[C@@H](NC(=O)[C@@H]1CCCN1C(=O)[C@H](CC(C)C)NC(=O)[C@@H](NC(=O)[C@H](Cc1cnc[nH]1)NC(=O)[C@H](C)NC(=O)[C@H](C)NC(=O)[C@@H](NC(=O)[C@H](CCCCN)NC(=O)[C@H](CC(C)C)NC(=O)[C@@H](NC(=O)[C@H](C)NC(=O)[C@@H]1CCCN1C(=O)[C@H](CC(C)C)NC(=O)[C@@H](N)Cc1ccccc1)C(C)C)C(C)C)[C@@H](C)CC)[C@@H](C)O)C(=O)N[C@H]1CSSC[C@@H](C(=O)O)NC(=O)[C@H](CCCN=C(N)N)NC(=O)[C@H](CCCN=C(N)N)NC(=O)[C@H](CO)NC(=O)[C@H]([C@@H](C)CC)NC(=O)[C@H](C)NC1=O [FLPAVLKVAAHILPTAICAISRRC]
MIC [26]: 25 µM (≈ 64.1 µg/mL)
MIC (Nocardia asteroides): 3.1 µM (≈ 7.94 µg/mL)
MIC [27]: 3.1 µM (≈ 7.94 µg/mL)
MIC [28]: ≥ 50 µM
MIC (Candida glabrata 090902): 12.5 µM (≈ 32 µg/mL)
MIC [29]: 3.1 µM (≈ 7.94 µg/mL)
MIC [30]: ≥ 100 µM

SMILES: CSCC[C@H](NC(=O)[C@H](CCCN=C(N)N)NC(=O)CNC(=O)[C@H](CCCCN)NC(=O)[C@H](Cc1ccc(O)cc1)NC(=O)[C@H](Cc1ccc(O)cc1)NC(=O)[C@@H](NC(=O)[C@H](CCC(N)=O)NC(=O)[C@H](Cc1ccccc1)NC(=O)[C@H](CCCN=C(N)N)NC(=O)[C@H](CCCCN)NC(=O)[C@H](CC(C)C)NC(=O)[C@H](Cc1ccc(O)cc1)NC(=O)[C@@H]1CCCN1C(=O)[C@@H](N)CCCCN)C(C)C)C(=O)N[C@@H](Cc1c[nH]c2ccccc12)C(=O)N[C@@H](CS)C(=O)O [KPYLKRFQVYYKGRMWC]
MIC (Micrococcus luteus): 6.25 µM (≈ 14.2 µg/mL)
MIC (Enterobacter cloacae): 25 µM (≈ 56.7 µg/mL)
MIC (Vibrio alginolyticus): 25 µM (≈ 56.7 µg/mL)
MIC (Fusarium oxysporum): 12.5 µM (≈ 28.3 µg/mL)
MIC (Klebsiella pneumoniae): 25 µM (≈ 56.7 µg/mL)
MIC (Aerococcus viridans): 6.25 µM (≈ 14.2 µg/mL)
MIC (Salmonella typhimurium): 25 µM (≈ 56.7 µg/mL)
MIC (Vibrio harveyi): ≥ 50 µM
MIC (Vibrio anguillarum): ≥ 100 µM
MIC (Bacillus megaterium): 3.12 µM (≈ 7.07 µg/mL)
MIC (Penicillium crustosum): 25 µM (≈ 56.7 µg/mL)
MIC (Staphylococcus aureus): 50 µM (≈ 113 µg/mL)
MIC [31]: ≥ 50 µM
MIC (Botrytis cinerea): 12.5 µM (≈ 28.3 µg/mL)
MIC (Vibrio penaeicida): ≥ 100 µM
MIC (Escherichia coli 363): 25 µM (≈ 56.7 µg/mL)

Now from value to compound:

MIC [32]: 13.8 µM (≈ 20 µg/mL)
MIC [33]: 6.9 µM (≈ 10 µg/mL)
SMILES: CC[C@H](C)[C@H](NC(=O)[C@@H](NC(=O)[C@@H](NC(=O)[C@@H]1CCCN1C(=O)[C@H](CC(C)C)NC(=O)[C@@H](N)CC(C)C)[C@@H](C)CC)C(C)C)C(=O)N[C@@H](CC(N)=O)C(=O)N[C@@H](CC(C)C)C(=O)N[C@@H](CC(C)C)C(=O)N[C@@H](CCCCN)C(=O)N[C@@H](CO)C(=O)N[C@@H](CC(C)C)C(=O)N[C@@H](CC(C)C)C(=O)O [LLPIVINLLKSLL]

MIC [34]: ≥ 500 µM
MIC [35]: > 500 µM
MIC [36]: > 500 µM
SMILES: CC(C)C[C@H](NC(=O)[C@@H]1CCCN1C(=O)[C@H](CCCN=C(N)N)NC(=O)[C@@H]1CCCN1C(=O)[C@H](CCCN=C(N)N)NC(=O)[C@@H]1CCCN1)C(=O)N1CCC[C@H]1C(=O)N[C@@H](Cc1ccccc1)C(=O)N1CCC[C@H]1C(=O)N[C@@H](CCCN=C(N)N)C(=O)N1CCC[C@H]1C(=O)NCC(=O)O [PRPRPLPFPRPG]
